{"source": "patent US5300298A", "about": "“Methods of treating obesity with purine related compounds” (The Pennsylvania Research Corporation, priority 1992, dated 1994)", "key": {"[1]": {"test_system": "lean and obese Zucker rats", "assay": "Glucose tolerance test after seven days of BW1433 administration", "assay_type": "in vivo", "procedure": "FIG. 3: Glucose tolerance test after seven days of BW1433 administration. Animals were fasted overnight before injection of 1.25 g/Kg glucose and samples taken 15, 30, 60 and 120 min for glucose determinations. The conditions are the same as those described in legend to FIG. 2 (Cont=V).\nFIG. 4: A bar graph representing the area under the glucose tolerance curves of FIG. 3.\n(§1) Next, I studied the effect of chronic treatment with BW1433. For this purpose I employed 2 ml Alzet mini osmotic pumps. Each pump was loaded with 2 ml of a solution containing BW1433 or with vehicle (aqueous solution adjusted to pH II). The amount of BW1433 was adjusted so that the pump delivered either zero, 0.2 mg or 0.4 mg/Kg/hour to each animal. On the first day the animals had the pumps implanted and were given a priming (2 mg/Kg or 4 mg/Kg) dose of the antagonist. Blood was taken prior to surgery and six hours after the animals were removed from their food supply. On each subsequent day animals had free access to food and water overnight, then their food removed for six hours, and a blood sample taken.\n(§2) In addition to taking blood samples for glycerol analysis, each animal was weighed every day for seven days. After seven days the animals were fasted overnight and a glucose tolerance test given The animals were then sacrificed and 1 ml blood sample taken for serum insulin and serum BW1433 determination drug levels. Insulin levels were measured with RIA kit (Diagnostic Products) and BW1433 levels were measured fluorometrically after HPLC separation at Burroughs Wellcome, Research Triangle Park, North Carolina. […] Nonetheless, when glucose tolerance curves were administered on day 7, drug-related differences could still be seen in all animals studied. […] This is illustrated more clearly in FIG. 4 where the area under the glucose tolerance curve is shown as a bar for each of the 6 groups of animals. […] FIG. 5 is a chart of the change in weight of treated and untreated lean and obese animals. […] The effect on weight change in each case was maximal at day 3, the day when the glycerol values peaked. […]"}, "Al adenosine receptor [2]": {"test_system": "Al adenosine receptor", "assay": "Acute subcutaneous injection of BW1433, serum glycerol (whole body lipolysis)", "assay_type": "in vivo, Sprague Dawley rats; lean and obese Zucker rats", "conditions": "Sprague Dawley rats, 18 hour fasted, 60 min after subcutaneous injection, 0-10 mg/Kg", "procedure": "FIG. 1: Serum glycerol levels 60 min after a subcutaneous injection of BW1433 (0-10 mg/Kg) in Sprague Dawley rats (SD) and lean and obese Zucker rats. Each point represents 3-4 animals in the case of SD rats and 3-10 or 4-10 in the case of lean and obese Zuckers, respectively.\nMy initial studies were carried out following acute subcutaneous injections of the drug into male Sprague Dawley rats and into lean and into obese Zucker rats. Blood samples (100 microliter) were taken from the tail of the rats and measurements made of serum glycerol^6. Glycerol is an end product of lipolysis and thus an excellent indicator of the rate of whole body lipolysis. […] I discovered that in the absence of the Formula I compound tested, serum glycerol levels only differ slightly when comparing lean and obese animals. Since there is 3-4 times more fat in the obese animal this is good evidence for sluggish lipolysis per g of fat in the obese. The obese animals however seem to mobilize the fat at an earlier time after removal of their food supply (Table 1), since after 6 hours of fasting the obese serum glycerol levels are much higher than the lean.\nNext, I studied the effect of subcutaneous injections of BW1433 in 18 hour fasted animals. The results, shown in FIG. 1, support my initial postulation, that the Al adenosine receptor may be particularly active in obese animals. […]"}, "[3]": {"assay": "Serum BW1433 level after chronic administration (fluorometric after HPLC separation)", "assay_type": "in vivo, Zucker rats", "conditions": "for concentration at 168 h: rat, serum, day 7", "procedure": "Next, I studied the effect of chronic treatment with BW1433. For this purpose I employed 2 ml Alzet mini osmotic pumps. Each pump was loaded with 2 ml of a solution containing BW1433 or with vehicle (aqueous solution adjusted to pH II). The amount of BW1433 was adjusted so that the pump delivered either zero, 0.2 mg or 0.4 mg/Kg/hour to each animal. On the first day the animals had the pumps implanted and were given a priming (2 mg/Kg or 4 mg/Kg) dose of the antagonist. Blood was taken prior to surgery and six hours after the animals were removed from their food supply. On each subsequent day animals had free access to food and water overnight, then their food removed for six hours, and a blood sample taken. In addition to taking blood samples for glycerol analysis, each animal was weighed every day for seven days. After seven days the animals were fasted overnight and a glucose tolerance test given The animals were then sacrificed and 1 ml blood sample taken for serum insulin and serum BW1433 determination drug levels. Insulin levels were measured with RIA kit (Diagnostic Products) and BW1433 levels were measured fluorometrically after HPLC separation at Burroughs Wellcome, Research Triangle Park, North Carolina. […] Nonetheless, when glucose tolerance curves were administered on day 7, drug-related differences could still be seen in all animals studied. […] This is illustrated more clearly in FIG. 4 where the area under the glucose tolerance curve is shown as a bar for each of the 6 groups of animals. […] FIG. 5 is a chart of the change in weight of treated and untreated lean and obese animals. […] The effect on weight change in each case was maximal at day 3, the day when the glycerol values peaked. Based on these remarkable results, the compounds of Formula I can be administered to obese warm-blooded animals as anti-obesity agents, or administered to farm animals to advantageously increase the ratio of muscle mass to fat therein. […] The obese animals apparently have lower extracellular fluid volume per Kg body weight."}, "[4]": {"conditions": "cited from earlier work"}, "Al adenosine receptor [5]": {"test_system": "Al adenosine receptor", "assay": "Blockade by BW1433 of receptors activated with the agonist N-6 phenylisopropyladenosine (PIA), subcutaneous", "assay_type": "in vivo, rat (Sprague Dawley, lean Zucker, obese Zucker)", "conditions": "all three strains of rat", "procedure": "Next, I studied the effect of subcutaneous injections of BW1433 in 18 hour fasted animals. The results, shown in FIG. 1, support my initial postulation, that the Al adenosine receptor may be particularly active in obese animals. […] To distinguish between these possibilities, the agonist N-6 phenylisopropyladenosine (PIA) was injected subcutaneously either alone or in combination with BW1433."}, "[6]": {"test_system": "lean and obese Zucker rats", "assay": "Daily serum glycerol during chronic administration of BW1433 (Alzet mini osmotic pumps)", "assay_type": "in vivo", "procedure": "FIG. 2: Daily serum glycerol levels during chronic administration of BW1433 in lean (L) and obese (F) Zucker rats. In the no drug group (V) n=5, in the D1 group (0.2 mg/Kg/hr) n=5, and in the D2 group (0.4 mg/Kg/hr) n=4.\nas §1\n(§3) In addition to taking blood samples for glycerol analysis, each animal was weighed every day for seven days. After seven days the animals were fasted overnight and a glucose tolerance test given The animals were then sacrificed and 1 ml blood sample taken for serum insulin and serum BW1433 determination drug levels. Insulin levels were measured with RIA kit (Diagnostic Products) and BW1433 levels were measured fluorometrically after HPLC separation at Burroughs Wellcome, Research Triangle Park, North Carolina. […] Nonetheless, when glucose tolerance curves were administered on day 7, drug-related differences could still be seen in all animals studied. […] This is illustrated more clearly in FIG. 4 where the area under the glucose tolerance curve is shown as a bar for each of the 6 groups of animals. […] FIG. 5 is a chart of the change in weight of treated and untreated lean and obese animals. […] The effect on weight change in each case was maximal at day 3, the day when the glycerol values peaked. Based on these remarkable results, the compounds of Formula I can be administered to obese warm-blooded animals as anti-obesity agents, or administered to farm animals to advantageously increase the ratio of muscle mass to fat therein."}, "[7]": {"test_system": "lean and obese (fatty) Zucker rats", "assay": "Serum insulin after chronic administration of BW1433 (RIA kit)", "assay_type": "in vivo", "procedure": "as §1, §3\nThe obese animals apparently have lower extracellular fluid volume per Kg body weight."}, "[8]": {"assay": "Body weights during chronic administration of BW1433", "assay_type": "in vivo, Zucker rats", "procedure": "FIG. 5: Body weights of lean and obese Zucker rats during chronic administration of BW1433. The data are presented as a % of day 0 weight. Day 0 represents when the Alzet mini-pumps were implanted. The conditions are the same as those described in the legend to FIG. 2.\nas §1, §2"}}}
{"compound": "CCCn1c(=O)c2nc(-c3ccc(/C=C/C(=O)O)cc3)[nH]c2n(CCC)c1=O", "note": "[BW1433, (E)-4-(1,2,3,6-tetrahydro-2,6-dioxo-1,3-dipropyl-9H-purin-8-yl)cinnamic acid]", "values": [{"measurement": "glucose tolerance", "setting": "[1]; day 7, 1.25 g/Kg glucose", "value": "improved glucose tolerance"}, {"measurement": "area under the glucose tolerance curves", "setting": "[1]; lean and obese (fatty) animals, FIG. 4", "value": "does reduce the area under these curves"}, {"measurement": "area under the glucose tolerance curve", "setting": "[1]; lean and obese Zucker rats, 1.25 g/Kg glucose intraperitoneal, day 7, dose dependence", "value": "smaller, the larger the dose"}, {"measurement": "effect on serum glycerol", "setting": "Al adenosine receptor [2]", "value": "little or no effect"}, {"measurement": "serum drug level, obese versus lean", "setting": "[3]; obese compared with lean Zucker rats", "value": "somewhat higher levels of drug than the lean"}, {"measurement": "concentration at 168 h", "setting": "[3]; 0.2 mg/kg/h, Fatty, +BW1433, 0.2 mg/kg (pump, per hour)", "value": "205 ± 22", "unit": "ng/mL"}, {"measurement": "concentration at 168 h", "setting": "[3]; 0.2 mg/kg/h, Lean, +BW1433, 0.2 mg/kg (pump, per hour)", "value": "102 ± 20", "unit": "ng/mL"}, {"measurement": "concentration at 168 h", "setting": "[3]; 0.4 mg/kg/h, Fatty, +BW1433, 0.4 mg/kg (pump, per hour)", "value": "624 ± 80", "unit": "ng/mL"}, {"measurement": "concentration at 168 h", "setting": "[3]; 0.4 mg/kg/h, Lean, +BW1433, 0.4 mg/kg (pump, per hour)", "value": "366 ± 98", "unit": "ng/mL"}, {"measurement": "oral administration and absorption", "setting": "[4]", "value": "can be administered and absorbed orally"}, {"measurement": "dose at which receptors could be effectively blocked", "setting": "Al adenosine receptor [5]", "value": "1 to 2", "unit": "mg/kg"}, {"measurement": "day when the glycerol values peaked", "setting": "[6]; chronic", "value": 3, "unit": "days"}, {"measurement": "serum levels on day 7 (adaptation to the drug)", "setting": "[6]; day 7, chronic", "value": "all serum levels were similar on day 7"}, {"measurement": "effect on serum glycerol level", "setting": "[6]; lean Zucker rats, chronic 0.2 or 0.4 mg/Kg/hour", "value": "did not effect the glycerol level"}, {"measurement": "serum glycerol level, higher dose (0.4 mg/Kg) versus lower dose (0.2 mg/Kg)", "setting": "[6]; obese Zucker rats, chronic", "value": "higher in the group with the higher dose of drug"}, {"measurement": "serum glycerol level versus controls", "setting": "[6]; obese Zucker rats, chronic 0.2 or 0.4 mg/Kg/hour", "value": "much higher levels of glycerol than the controls"}, {"measurement": "serum insulin", "setting": "[7]; Fatty, +BW1433, 0.2 mg/kg (vehicle 54.06 ± 9.49)", "value": "52.81 ± 4.82", "unit": "micro lu/ml"}, {"measurement": "serum insulin", "setting": "[7]; Fatty, +BW1433, 0.4 mg/kg (vehicle 54.06 ± 9.49)", "value": "58.06 ± 6.52", "unit": "micro lu/ml"}, {"measurement": "serum insulin", "setting": "[7]; Lean, +BW1433, 0.2 mg/kg (vehicle 7.92 ± 0.92)", "value": "11.63 ± 1.62", "unit": "micro lu/ml"}, {"measurement": "serum insulin", "setting": "[7]; Lean, +BW1433, 0.4 mg/kg (vehicle 7.92 ± 0.92)", "value": "10.67 ± 1.50", "unit": "micro lu/ml"}, {"measurement": "growth or weight gain", "setting": "[8]; lean Zucker rats", "value": "increased growth or weight gain"}, {"measurement": "day of maximal effect on weight change", "setting": "[8]; lean and obese", "value": 3, "unit": "days"}, {"measurement": "growth or weight gain", "setting": "[8]; obese Zucker rats", "value": "decreased growth or weight gain"}]}
